Measured values published in patent US9376499B2, “PAR-1 activation by metalloproteinase-1 (MMP-1)” (Tufts Medical Center, Inc., priority 2009, dated 2016).
pIC50: −log10 of the molar value. Non-standard residues stand in square brackets, D forms with d. Residues, ends and D or L forms follow the SMILES beside them. No end group written: not given here. *: point of attachment. 4Abz = Nc1ccc(C(=O)O)cc1; NHOH = ON*

Legend:
platelets = test: Clot retraction assay in human platelet-rich plasma, collagen initiated; format: cell-based; conditions: 2.5-5 μg/ml collagen (titration 1-20 μg/ml); FN-439 5 μM, RWJ-56110 1 μM, MMP9/13 Inh 10 nM; 90 or 240 min
Method: Platelet rich plasma (PRP) was isolated from human whole blood anti-coagulated with 4% sodium citrate. Clot retraction assays were done in 1 ml volumes containing 800 μl PBS and 200 μl PRP plus 10 μl red blood cells to enhance contrast. Samples were pretreated with FN-439 (5 μM), MMP9/13 Inh (10 nM) or RWJ-56110 (1 μM) for 15 min and clot formation was initiated with 1-20 μg/ml type I fibrillar collagen. Samples were incubated at 37° C. for 90 or 240 min and then photographed with a digital camera. Each photograph in FIG. 6I is representative of three independent experiments.

MMP-1 [1] = target: T1, MMP-1 (Cavia porcellus, UniProt H0V812); test: Collagenase activity released from collagen-treated guinea pig platelets; format: biochemical; conditions: 20 μg/ml collagen; 3 μM FN-439 or 20 μg/ml Ab
T1 construct: endogenous in cells; host or cells: platelets of Hartley guinea pigs
T1 sequence (H0V812 1-472): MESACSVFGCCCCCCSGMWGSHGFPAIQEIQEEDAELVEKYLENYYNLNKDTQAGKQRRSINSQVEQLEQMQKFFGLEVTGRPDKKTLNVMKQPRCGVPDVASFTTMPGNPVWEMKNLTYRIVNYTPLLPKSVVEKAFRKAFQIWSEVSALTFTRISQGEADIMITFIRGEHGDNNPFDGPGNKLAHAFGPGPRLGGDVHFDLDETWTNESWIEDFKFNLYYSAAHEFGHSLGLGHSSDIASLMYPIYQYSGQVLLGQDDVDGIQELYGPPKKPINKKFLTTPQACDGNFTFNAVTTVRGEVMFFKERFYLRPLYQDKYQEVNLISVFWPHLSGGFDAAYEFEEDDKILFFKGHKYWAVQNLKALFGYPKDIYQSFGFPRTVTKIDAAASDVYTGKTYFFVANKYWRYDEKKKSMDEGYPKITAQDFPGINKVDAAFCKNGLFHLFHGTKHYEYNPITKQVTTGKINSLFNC
Method: Animal experiments were performed in accordance with the National Institutes of Health guidelines and approved by the Tufts Medical Center Institutional Animal Care and Use Committee. 2-4 week old Hartley guinea pigs (170-260 g) were anesthetized by an i.p. injection of xylazine (10 mg/kg) plus ketamine (50 mg/kg) and then catheterized via the left jugular vein and injected (200 μL) with either vehicle (20% DMSO/80% water), P1pal-7 or FN-439. For determination of collagen-dependent systemic platelet activation, 10 min after administration of inhibitors, 200 μg collagen in 200 μL of PBS was delivered via the jugular vein. Ten min after collagen injection, blood was collected into sodium citrate (1% v/v final) from the contralateral jugular vein and platelet counts were measured with a Hemavet850. The enzymatic activity of active MMP-1 in supernatants and platelet lysates was determined using DQ collagen I as fluorogenic substrate in the presence or absence of 3 μM FN-439, or 20 μg/ml of control IgG or a MMP-1 blocking Ab (preincubated for 2 h at 37° C.), as indicated.
Dashed grey line: secondary antibody alone; Solid lines: FACS profiles of platelets treated with the indicated concentrations of collagen for 15 min at 37° C. and then stained with primary MMP-1 (AB806) plus secondary antibodies.

MMP-1 [2] = target: T2, MMP-1 (Homo sapiens, UniProt P03956); conditions: cited from earlier work
T2 sequence (P03956 100-469): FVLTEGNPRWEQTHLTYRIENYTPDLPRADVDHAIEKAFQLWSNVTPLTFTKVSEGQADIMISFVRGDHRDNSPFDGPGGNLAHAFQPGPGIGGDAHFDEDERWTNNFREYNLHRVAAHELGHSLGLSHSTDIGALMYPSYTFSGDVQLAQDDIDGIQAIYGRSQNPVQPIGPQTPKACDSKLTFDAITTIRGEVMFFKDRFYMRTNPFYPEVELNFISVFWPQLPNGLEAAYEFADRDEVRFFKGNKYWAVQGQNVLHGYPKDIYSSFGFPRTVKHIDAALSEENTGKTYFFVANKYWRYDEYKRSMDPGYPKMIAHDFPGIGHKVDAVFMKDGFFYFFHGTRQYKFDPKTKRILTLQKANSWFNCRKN

MMP-3 = MMP-3 (Homo sapiens, UniProt P08254); conditions: cited from earlier work
Sequence of MMP-3 (P08254 100-477, species assumed): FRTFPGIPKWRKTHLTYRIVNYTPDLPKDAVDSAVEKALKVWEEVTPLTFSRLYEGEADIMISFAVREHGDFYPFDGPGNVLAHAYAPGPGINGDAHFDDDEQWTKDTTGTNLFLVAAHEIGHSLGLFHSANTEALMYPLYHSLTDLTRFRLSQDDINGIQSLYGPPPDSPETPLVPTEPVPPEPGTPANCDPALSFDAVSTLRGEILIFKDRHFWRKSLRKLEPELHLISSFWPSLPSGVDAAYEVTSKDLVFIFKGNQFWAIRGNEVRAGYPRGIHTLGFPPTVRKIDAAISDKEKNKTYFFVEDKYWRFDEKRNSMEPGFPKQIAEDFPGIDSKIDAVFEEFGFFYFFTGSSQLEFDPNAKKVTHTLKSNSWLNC

MMP-8 = MMP-8 (Homo sapiens, UniProt P22894); conditions: cited from earlier work
Sequence of MMP-8 (P22894 101-467, species assumed): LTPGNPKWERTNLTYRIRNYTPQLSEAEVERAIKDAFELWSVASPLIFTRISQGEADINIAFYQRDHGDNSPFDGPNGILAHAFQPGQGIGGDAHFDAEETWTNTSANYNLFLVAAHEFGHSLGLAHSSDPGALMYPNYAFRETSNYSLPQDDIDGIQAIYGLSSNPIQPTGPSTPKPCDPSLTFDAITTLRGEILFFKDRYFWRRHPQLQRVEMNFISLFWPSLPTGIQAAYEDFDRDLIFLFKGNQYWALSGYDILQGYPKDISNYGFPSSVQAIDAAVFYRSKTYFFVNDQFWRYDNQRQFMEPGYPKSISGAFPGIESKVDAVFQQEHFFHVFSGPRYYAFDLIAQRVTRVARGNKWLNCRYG

MMP-9 = MMP-9 (Homo sapiens, UniProt P14780); conditions: cited from earlier work
Sequence of MMP-9 (P14780 94-707, species assumed): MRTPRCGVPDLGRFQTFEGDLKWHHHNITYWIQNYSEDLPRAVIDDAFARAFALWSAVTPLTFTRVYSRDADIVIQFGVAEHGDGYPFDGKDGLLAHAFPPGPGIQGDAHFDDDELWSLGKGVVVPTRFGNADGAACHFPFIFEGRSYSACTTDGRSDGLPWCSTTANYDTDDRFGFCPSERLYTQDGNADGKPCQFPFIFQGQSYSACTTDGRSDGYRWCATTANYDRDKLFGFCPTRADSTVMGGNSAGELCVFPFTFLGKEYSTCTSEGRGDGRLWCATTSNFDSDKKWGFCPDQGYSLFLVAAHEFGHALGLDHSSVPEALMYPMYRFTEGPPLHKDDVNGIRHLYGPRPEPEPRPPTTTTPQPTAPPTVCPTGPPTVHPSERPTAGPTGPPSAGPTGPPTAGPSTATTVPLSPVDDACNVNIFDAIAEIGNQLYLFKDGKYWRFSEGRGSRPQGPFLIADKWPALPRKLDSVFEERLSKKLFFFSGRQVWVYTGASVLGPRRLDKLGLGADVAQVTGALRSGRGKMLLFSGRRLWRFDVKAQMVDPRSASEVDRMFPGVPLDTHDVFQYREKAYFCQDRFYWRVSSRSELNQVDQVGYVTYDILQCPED

MMP-1 [3] = target: T2, MMP-1; test: Collagenase (active MMP-1) activity of collagen-stimulated human platelets, DQ collagen I fluorogenic substrate; format: biochemical; parameters: endogenous in cells; host or cells: human platelets from healthy donors, stimulated with collagen, ADP or U-46619; conditions: 3 μM FN-439 or 20 μg/ml blocking Ab; platelets treated with 20 μg/ml collagen
Method: The enzymatic activity of active MMP-1 in supernatants and platelet lysates was then determined. Human or guinea pig platelets from PRP were concentrated four-fold by centrifugation at 700 g for 25 min at room temperature, and then resuspended in 0.25 volume of PIPES containing 1 mM EDTA (final platelet count was 10^9/mL). Platelets were treated with PBS (buffer), 20 μM ADP, 20 μM U-46619, or 20 μg/ml collagen in the presence of 2.5 mM CaCl2. The platelets were incubated for 15 min at 37° C. with occasional gentle mixing. Platelets were collected by centrifugation at 10,000 g for 5 min at 4° C. and resuspended in lysis buffer (50 mM Tris HCl, 100 mM NaCl, 1 mM NaF, 5 mM EDTA, 0.1% (v/v) Triton X-100, 100 μM PMSF, pH 7.4) and then sheared with a 27 gauge needle.
The enzymatic activity of active MMP-1 in supernatants and platelet lysates was measured using DQ collagen I (Molecular Probes) as fluorogenic substrate and reporter of collagenase activity substrate (Boire et al., 2005) in the presence or absence of 3 μM FN-439, or 20 μg/ml each of control IgG, MMP-1 blocking Ab, MMP-8 blocking Ab or MMP-13 blocking Ab (preincubated for 2 h at 37° C.), as indicated with APMA-activated MMP-1 serving as control (FIG. 1A, striped bars). […]

PAR1 = test: P1pal-7 ammonium acetate salt: IC50 and PAR1 specificity (test not described); conditions: ammonium acetate salt of P1pal-7 in 100% water

Row | block of collagenase activity released by collagen from guinea pig platelets (MMP-1 [1]) | inhibition of platelet collagenase activity released by collagen (cleavage of fluorogenic collagen substrate) (MMP-1 [3]) | Molecule | inhibition of clot formation and retraction (platelets) | pIC50 (MMP-1 [2]) | pIC50 (MMP-3) | pIC50 (MMP-8) | pIC50 (MMP-9) | specificity for PAR1 (PAR1)
1 | completely blocked | completely blocked | CC(C)C[C@@H](NC(=O)[C@@H]1CCCN1C(=O)CNC(=O)c1ccc(N)cc1)C(=O)N[C@H](C)C(=O)NO [FN-439] (H-[4Abz]GP[dL][dA]-{NHOH}) | completely inhibited | 6.00 | 3.82 | 6.00 | 4.52 | –
2 | – | – | P1pal-7: PAR1 i3 loop pepducin lipopeptide, KKSRALF (SEQ ID NO. 2), palmitate (also: palmitate, site not given here) | – | – | – | – | – | retains specificity for PAR1
